These results are taken from US7999132B2, “Anthranilic acid derivative or salt thereof” (Toyama Chemical Co., Ltd., priority 2004, dated 2011).

The test has as its system MMP-13. The test is described as follows: MMP-13 Production Inhibition Test. It is filed as cell-based, human. To be noted: Homo sapiens; 30 μmol/L; SW1353 cells stimulated with IL-1β 10 ng/mL; MMP-13 in culture supernatant by ELISA 16 hours after stimulation; read-out: Inhibition rate (%) at 30 μmol/L. The protocol:
MMP-13 Production Inhibition Test
6.8×10^3 human cartilage derived cell line SW1353 cells were suspended in 100 μL of Dulbecco modified Eagle's medium supplemented with 10% fetal calf serum, plated on 96-well plates and cultured for 3 days. After the culture medium was changed to Dulbecco modified Eagle's medium containing 0.2% lactalbumin hydrolysate and the cells were cultured for 6 hours, […] were added and then IL-1β was added to obtain the final concentration of 10 ng/mL 1 hour later. 16 hours after the stimulation, supernatant was collected and the amount of MMP-13 in the culture supernatant was determined with an ELISA kit (Amersham). The inhibition rate was calculated from the amount of MMP-13 in the presence of a test compound assuming that the amount of MMP-13 was 100% in the absence of the test compound.
A general note: In an ELISA, binding on a coated surface is turned into a signal by an enzyme label.

Take `COc1cccc(Oc2ccc(C(=O)O)c(NC(=O)c3ccccc3)c2)c1` [Example 543, 2-(Benzamido)-4-(3-methoxyphenoxy)benzoic acid]: the inhibition at 30 µM came to 85%.

Regarding `O=C(Nc1cc(-c2ccccc2)ccc1C(=O)O)c1cccs1` [Example 301, 4-Phenyl-2-(thiophene-2-carboxamido)benzoic acid], the inhibition at 30 µM was found to be 80%.

Turning to `O=C(Nc1cc(-c2ccc(Cl)cc2)ccc1C(=O)O)c1ccccc1` [Example 212, 2-(Benzamido)-4-(4-chlorophenyl)benzoic acid], the inhibition at 30 µM amounted to 95%.

In the case of `O=C(O)c1ccc(Oc2ccccc2)cc1NC(=O)C1CCCCC1` [Example 85, 2-(Cyclohexanecarboxamido)-4-phenoxybenzoic acid], the inhibition at 30 µM came out at 60%.

As to `COc1ccc(-c2ccc(C(=O)O)c(NC(=O)c3ccccc3)c2)cc1Cl` [Example 423, 2-(Benzamido)-4-(3-chloro-4-methoxyphenyl)benzoic acid], the inhibition at 30 µM is 98%.

For the molecule `O=C(Nc1cc(-c2ccccc2)ccc1C(=O)O)c1ccc(-n2cccc2)nc1` [Example 509, 4-Phenyl-2-(6-(1H-pyrrol-1-yl)pyridine-3-carboxamido) benzoic acid], the inhibition at 30 µM was 77%.

In the case of `O=C(Nc1cc(OC2CCCCC2)ccc1C(=O)O)c1ccccc1` [Example 105, 2-(benzamido)-4-(cyclohexyloxy)benzoic acid], the inhibition at 30 µM came to 64%.

For `Cc1cccc(C(=O)Nc2cc(Oc3ccccc3)ccc2C(=O)O)c1` [Example 325, 2-(3-Methylbenzamido)-4-phenoxybenzoic acid], the inhibition at 30 µM came to 91%.

Regarding `O=C(Nc1cc(CCc2ccc(OC(F)(F)F)cc2)ccc1C(=O)O)c1ccccc1` [Example 138, 2-(Benzamido)-4-(2-(4-(trifluoromethoxy)phenyl)ethyl)benzoic acid], the inhibition at 30 µM worked out at 95%.

Take `Cc1cccc(Oc2ccc(C(=O)O)c(NC(=O)c3ccccc3)c2)c1C` [Example 541, 2-(Benzamido)-4-(2,3-dimethylphenoxy)benzoic acid]: the inhibition at 30 µM was determined as 97%.

For `COc1cccc(/C=C/c2ccc(C(=O)O)c(NC(=O)c3ccc4c(c3)OCO4)c2)c1` [Example 157, 2-(Benzo[1,3]dioxole-5-carboxamido)-4-((E)-2-(3-methoxyphenyl)vinyl)benzoic acid], the inhibition at 30 µM is 98%.

As to `Cc1cccc(C(=O)Nc2cc(-c3ccc(F)cc3F)ccc2C(=O)O)c1C` [Example 189, 4-(2,4-difluorophenyl)-2-(2,3-dimethylbenzamido)benzoic acid], the inhibition at 30 µM came to 96%.

As to `O=C(Nc1cc(-c2cc3ccccc3o2)ccc1C(=O)O)c1ccccc1` [Example 8, 2-(benzamido)-4-(benzofuran-2-yl)benzoic acid], the inhibition at 30 µM is 95%.

In the case of `O=C(Nc1cc(-c2ccc3c(c2)OCO3)ccc1C(=O)O)c1ccccc1` [Example 11, 2-(benzamido)-4-(benzo[1,3]dioxol-5-yl)benzoic acid], the inhibition at 30 µM was 92%.

Consider `O=C(Nc1cc(-c2ccccc2)ccc1C(=O)O)c1ccccc1` [Example 4, 2-(benzamido)-4-phenylbenzoic acid], for which the inhibition at 30 µM was determined as 80%.

With `O=C(C=Cc1ccccc1)Nc1cc(Oc2ccccc2)ccc1C(=O)O` [Example 91, 2-(Cinnamamido)-4-phenoxybenzoic acid], the inhibition at 30 µM was 95%.

As to `O=C(Nc1cc(Oc2ccccc2)ccc1C(=O)O)c1nc2ccccc2s1` [Example 97, 2-(Benzothiazole-2-carboxamido)-4-phenoxybenzoic acid], the inhibition at 30 µM was 97%.

For the molecule `O=C(Nc1cc(Oc2ccccc2)ccc1C(=O)O)c1ccc(-n2cccc2)nc1` [Example 499, 4-Phenoxy-2-(6-(1H-pyrrol-1-yl)pyridine-3-carboxamido)benzoic acid], the inhibition at 30 µM came to 99%.

With `O=C(Nc1cc(/C=C/c2cccc(Cl)c2)ccc1C(=O)O)c1ccccc1` [Example 134, 2-(Benzamido)-4-((E)-2-(3-chlorophenyl)vinyl)benzoic acid], the inhibition at 30 µM is 99%.

As to `O=C(Nc1cc(/C=C/c2ccc(F)cc2F)ccc1C(=O)O)c1ccccc1` [Example 141, 2-(benzamido)-4-((E)-2-(2,4-difluorophenyl)vinyl)benzoic acid], the inhibition at 30 µM worked out at 95%.

As to `O=C(Nc1cc(-c2cc(Cl)ccc2Cl)ccc1C(=O)O)c1ccccc1` [Example 425, 2-(Benzamido)-4-(2,5-dichlorophenyl)benzoic acid], the inhibition at 30 µM is 99%.

In the case of `O=C(Nc1cc(-c2ccccc2)ccc1C(=O)O)c1cc(-c2ccccc2)ncn1` [Example 349, 4-Phenyl-2-(6-phenylpyrimidine-4-carboxamido)benzoic acid], the inhibition at 30 µM was found to be 95%.

In the case of `O=C(Nc1cc(Oc2ccccc2)ccc1C(=O)O)c1ccc(-n2cccc2)cc1` [Example 495, 4-phenoxy-2-(4-(1H-pyrrol-1-yl)benzamido)benzoic acid], the inhibition at 30 µM is 99%.

In the case of `O=C(Nc1cc(/C=C/c2cc(F)cc(F)c2)ccc1C(=O)O)c1ccccc1` [Example 130, 2-(Benzamido)-4-((E)-2-(3,5-difluorophenyl)vinyl)benzoic acid], the inhibition at 30 µM turned out to be 96%.

On to `O=C(O)c1ccc(Oc2ccccc2)cc1NS(=O)(=O)c1ccccc1` [Example 88, 2-(Benzenesulfonamido)-4-phenoxybenzoic acid], for which the inhibition at 30 µM was determined as 80%.

Consider `O=C(Nc1cc(/C=C/c2cccc3nsnc23)ccc1C(=O)O)c1ccccc1` [Example 146, 2-(Benzamido)-4-((E)-2-(2,1,3-benzothiadiazol-4-yl)vinyl)benzoic acid], for which the inhibition at 30 µM is 97%.

In the case of `Cc1cccc(C(=O)Nc2cc(CCc3ccccc3)ccc2C(=O)O)c1C` [Example 262, 2-(2,3-Dimethylbenzamido)-4-phenethylbenzoic acid], the inhibition at 30 µM was 93%.

On to `O=C(Nc1cc(-c2cccc(Cl)c2)ccc1C(=O)O)c1ccc2c(c1)OCO2` [Example 163, 2-(Benzo[1,3]dioxole-5-carboxamido)-4-(3-chlorophenyl)benzoic acid], for which the inhibition at 30 µM came out at 98%.

As to `O=C(Nc1cc(Oc2ccc(F)cc2)ccc1C(=O)O)c1ccccc1` [Example 560, 2-(Benzamido)-4-(4-fluorophenoxy)benzoic acid], the inhibition at 30 µM was 85%.

Regarding `O=C(Nc1cc(CCc2ccccc2)ccc1C(=O)O)c1ccc(F)c(F)c1` [Example 433, 2-(3,4-Difluorobenzamido)-4-phenethylbenzoic acid], the inhibition at 30 µM came to 98%.

In the case of `CC(=O)c1cccc(C(=O)Nc2cc(-c3ccccc3)ccc2C(=O)O)c1` [Example 514, 2-(3-Acetylbenzamido)-4-phenylbenzoic acid], the inhibition at 30 µM was determined as 91%.

Turning to `O=C(Nc1cc(-c2ccc(O)cc2)ccc1C(=O)O)c1ccc(C(F)(F)F)cc1` [Example 176, 4-(4-Hydroxyphenyl)-2-(4-(trifluoromethyl)benzamido)benzoic acid], the inhibition at 30 µM was 98%.

For `Cc1ccc(-c2ccc(C(=O)O)c(NC(=O)c3ccccc3)c2)cc1Cl` [Example 426, 2-(benzamido)-4-(3-chloro-4-methylphenyl)benzoic acid], the inhibition at 30 µM was determined as 98%.

`O=C(O)c1ccc(CCc2ccccc2)cc1NC(=O)c1ccccc1C(F)(F)F` [Example 255, 4-Phenethyl-2-(2-(trifluoromethyl)benzamido)benzoic acid]: the inhibition at 30 µM was 91%.

As for `O=C(Nc1cc(Oc2ccc(C(F)(F)F)cc2)ccc1C(=O)O)c1ccccc1` [Example 570, 2-(Benzamido)-4-(4-(trifluoromethyl)phenoxy)benzoic acid], the inhibition at 30 µM was determined as 98%.

Regarding `O=C(Nc1cc(-c2c(F)cccc2F)ccc1C(=O)O)c1ccccc1` [Example 217, 2-(Benzamido)-4-(2,6-difluorophenyl)benzoic acid], the inhibition at 30 µM was 68%.

For the molecule `O=C(Nc1cc(-c2ccccc2)ccc1C(=O)O)c1ccccc1F` [Example 282], the inhibition at 30 µM turned out to be 75%.

With `O=C(Nc1cc(Oc2cccc(Cl)c2)ccc1C(=O)O)c1ccccc1` [Example 551, 2-(benzamido)-4-(3-chlorophenoxy)benzoic acid], the inhibition at 30 µM amounted to 86%.

As for `O=C(Nc1cc(-c2cccc(Cl)c2)ccc1C(=O)O)c1ccc(O)cc1` [Example 196, 4-(3-chlorophenyl)-2-(4-hydroxybenzamido)benzoic acid], the inhibition at 30 µM is 97%.

In the case of `O=C(Nc1cc(-c2ccc(F)cc2F)ccc1C(=O)O)c1ccccc1` [Example 19, 2-(benzamido)-4-(2,4-difluorophenyl)benzoic acid], the inhibition at 30 µM was found to be 94%.

As for `O=C(Nc1cc(Oc2ccccc2)ccc1C(=O)O)c1ccc(Cl)c(Cl)c1` [Example 442, 2-(3,4-Dichlorobenzamido)-4-phenoxybenzoic acid], the inhibition at 30 µM worked out at 99%.

Regarding `O=C(Nc1cc(CCc2ccccc2)ccc1C(=O)O)c1ccc(Cl)c(Cl)c1` [Example 431, 2-(3,4-Dichlorobenzamido)-4-phenethylbenzoic acid], the inhibition at 30 µM came out at 98%.

On to `Cc1cccc(C)c1Oc1ccc(C(=O)O)c(NC(=O)c2ccccc2)c1` [Example 564, 2-(Benzamido)-4-(2,6-dimethylphenoxy)benzoic acid], for which the inhibition at 30 µM stood at 97%.

Regarding `O=C(Nc1cc(Oc2ccccc2)ccc1C(=O)O)c1ccc2occc2c1` [Example 96, 2-(Benzofuran-5-carboxamido)-4-phenoxybenzoic acid], the inhibition at 30 µM came out at 96%.

Consider `O=C(Nc1cc(-c2ccc(F)cc2F)ccc1C(=O)O)c1ccc(F)cc1` [Example 150, 4-(2,4-difluorophenyl)-2-(4-fluorobenzamido)benzoic acid], for which the inhibition at 30 µM is 96%.
